According to patent US20170349532A1, “CATIONIC LIPID” (Kyowa Hakko Kirin Co., Ltd., priority 2011, published 2017):

Assay: Average particle diameter of preparation (Zetasizer Nano ZS)
Type: physicochemical
Conditions: for Particle diameter of Preparetion: average particle diameter of cationic lipid/nucleic acid complex, Example 118 preparation: compound/PEG-DMPE Na/DSPC/cholesterol with apo-b siRNA
Text: Preparations were produced using the compounds obtained in Examples 1 to 117, as follows.
APO-B siRNA was used as the nucleic acid. APO-B siRNA suppresses expression of an apolipoprotein-B (hereinafter, “apo-b”) gene and has a sense strand with the base sequence 5′-GmUCAmUCACACmUGAAmUACCAAmU-3′ (the sugars attached to the bases appended with m are 2′-O-methyl-substituted riboses), and an antisense strand with the base sequence 5′-[…]-3′ (the 5′-end is phosphorylated). The sense strand and the antisense strand were obtained from Nippon EGT, GeneDesign, Inc., Invitrogen or Hokkaido System Science Co., Ltd., and annealed to prepare the nucleic acid (hereinafter, “apo-b siRNA”).
A solution comprising the constituent components was prepared by dissolving each of the weighed samples in 90 vol % ethanol in 8.947/1.059/5.708/13.697 mmol/L [compounds 1 to 117 obtained in Examples 1 to 117/sodium 1,2-dimyristoyl-sn-glycero-3-phosphoethanolamine-N-(methoxy(polyethylene glycol)-2000) (PEG-DMPE Na,N-(carbonylmethoxypolyethylene glycol 2000)-1,2-dimyristoyl-sn-glycero-3-phosphoethanolamine sodium salt, NOF Corporation)/distearoylphosphatidyl choline (DSPC, 1,2-distearoyl-sn-glycero-3-phosphocholine, NOF Corporation)/cholesterol (Avanti Polar Lipids)]. Separately, apo-b siRNA/distilled water (24 mg/mL) was diluted with a Tris-EDTA buffer (200 mM Tris-HCl, 20 mM EDTA, Invitrogen) and a 20 mM citric acid buffer (pH 5.0) to prepare a 1.5 mg/mL apo-b siRNA aqueous solution (2 mM Tris-EDTA/20 mM citric acid buffer, pH 5.0).
The resulting lipid solution was heated to 37° C., and a 100-μL portion was transferred to a preparation container. The apo-b siRNA aqueous solution (100 μL) was then added thereto while being stirred. Then, a 20 mM citric acid buffer (containing 300 mM NaCl, pH 6.0; 200 μL) was added to the lipid nucleic acid mixed suspension (200 μL) while being stirred. The siRNA concentration was brought to 10 μM by dropping a Dulbecco phosphate buffer (DPBS, Invitrogen; 662 μL), and preparations (compositions comprising compounds 1 to 117 and the nucleic acid) were obtained.
The average particle diameter of the complex between the cationic lipis and the nucleic acid in each preparation was measured with a particle diameter measurement device (Malvern; Zetasizer Nano ZS).

Particle diameter of Preparetion [nm] | average particle diameter of the complex between the cationic lipis and the nucleic acid in the preparation (Comparative Examples 1 to 8, prepared as Example 118 with apo-b siRNA) [nm] | Structure (SMILES)
136.3 | – | CCCCCCCC/C=C\CCCCCCCCOCCN(CCOCCCCCCCC/C=C\CCCCCCCC)C(=O)CCN [Compound 87, 3-Amino-N,N-bis(2-((Z)-octadec-9-enyloxy)ethyl)propanamido]
131.9 | – | CCCCCCCC/C=C\CCCCCCCCOCCN(CCOCCCCCCCC/C=C\CCCCCCCC)C(=O)CCCCCN [Compound 88, 6-Amino-N,N-bis(2-((Z)-octadec-9-enyloxy)ethyl)]
150.0 | – | CCCCC/C=C\C/C=C\CCCCCCCCO[C@H]1CNC[C@@H]1OCCCCCCCC/C=C\C/C=C\CCCCC (stereo in doubt) [Compound 43, (3S,4S)-3,4-bis((9Z,12Z)-Octadec-9,12-dienyloxy)pyrrolidine]
125.7 | – | CCCCCCCC/C=C\CCCCCCCCOCCN(CCOCCCCCCCC/C=C\CCCCCCCC)CC(O)CO (stereo not drawn) [Compound 82, 3-(bis(2-((Z)-Octadec-9-enyloxy)ethyl)amino)propan-1,2-diol]
154.2 | – | CCCCCCCCCCCCCCO[C@@H]1CNC[C@H]1OCCCCCCCCCCCCCC [Compound 5, (3R,4R)-3,4-bis(Tetradecyloxy)pyrrolidine]
124.0 | – | CCCC/C=C\CCCCCCCCOCCN(C)CCOCCCCCCCC/C=C\CCCC [Compound 75, N-Methyl-N,N-bis(2-((Z)-Tetradec-9-enyloxy)ethyl)amine]
121.5 | – | CCCCCCCC/C=C\CCCCCCCCOCCN(CCOCCCCCCCC/C=C\CCCCCCCC)C(=O)CN(C)C [Compound 89, 2-(Dimethylamino)-N,N-bis(2-((Z)-octadec-9-enyloxy)ethyl)acetamide]
120.1 | – | CCCCCCCC/C=C\CCCCCCCCOCCN(CCOCCCCCCCC/C=C\CCCCCCCC)CCC(=O)N(C)C [Compound 85, 3-(bis(2-((2)-Octadec-9-enyloxy)ethyl)amino)-N,N-dimethylpropanamide]
– | 141.0 | CCCCC/C=C\C/C=C\CCCCCCCC(=O)O[C@@H]1CN(C)C[C@H]1OC(=O)CCCCCCC/C=C\C/C=C\CCCCC [Compound A-3, (3R,4R)-1-Methylpyrrolidine-3,4-diyl di((9Z,12Z)-octadec-9,12-dienoate), reference compound]
125.6 | – | CCCCC/C=C\C/C=C\CCCCCCCC(=O)OC[C@@H]1CNC[C@H]1COC(=O)CCCCCCC/C=C\C/C=C\CCCCC (relative stereo) [Compound 105, trans-3,4-bis(((9Z,12Z)-Octadec-9,12-dienoyloxy)methyl)pyrrolidine]
112.0 | – | CCCCCCCC/C=C\CCCCCCCCOC[C@@H]1C[N+](C)(C)C[C@H]1COCCCCCCCC/C=C\CCCCCCCC.[Cl-] (relative stereo) [Compound 111, trans-1,1-Dimethyl-3,4-bis(((Z)-octadec-9-enyloxy)methyl)pyrrolidinium chloride]
142.6 | – | CCCCC/C=C\C/C=C\CCCCCCCCO[C@@H]1CN(CC)C[C@H]1OCCCCCCCC/C=C\C/C=C\CCCCC [Compound 17, (3R,4R)-1-Ethyl-3,4-bis((9Z,12Z)-octadec-9,12-dienyloxy)pyrrolidine]
120.3 | – | CCCCC/C=C\C/C=C\CCCCCCCCO[C@@H]1CN(CCCO)C[C@H]1OCCCCCCCC/C=C\C/C=C\CCCCC [Compound 56, 3-((3R,4R)-3,4-bis((9Z,12Z)-Octadec-9,12-dienyloxy)pyrrolidin-1-yl)propan-1-ol]
107.5 | – | CCCCC/C=C\C/C=C\CCCCCCCC(=O)O[C@@H]1C[N+](C)(C)C[C@H]1OC(=O)CCCCCCC/C=C\C/C=C\CCCCC.[Cl-] [Compound 20, (3R,4R)-1,1-Dimethyl-3,4-bis((9Z,12Z)-octadec-9,12-dienoyloxy)pyrrolidinium chloride]
124.1 | – | CCCCCCCC/C=C\CCCCCCCC(=O)OCCN(CCOC(=O)CCCCCCC/C=C\CCCCCCCC)C(=O)CN(C)C [Compound 98, 2-(Dimethylamino)-N,N-bis(2-((Z)-octadec-9-enoyloxy)ethyl)acetamide]
125.3 | – | CCCCC/C=C\C/C=C\CCCCCCCCO[C@@H]1CN(C2CCN(C)CC2)C[C@H]1OCCCCCCCC/C=C\C/C=C\CCCCC [Compound 60, 4-((3R,4R)-3,4-bis((9Z,12Z)-Octadec-9,12-dienyloxy)pyrrolidin-1-yl)-1-methylpiperidine]
131.4 | – | CCCCCCCC/C=C\CCCCCCCCCCOCCN(C)CCOCCCCCCCCCC/C=C\CCCCCCCC [Compound 78, N,N-bis(2-((Z)-Icos-11-enyloxy)ethyl)-N-methylamine]
119.7 | – | CCCCCC/C=C\CCCCCCCCCCOCCN(C)CCOCCCCCCCCCC/C=C\CCCCCC [Compound 77, N-Methyl-N,N-bis(2-((Z)-octadec-11-enyloxy)ethyl)amine]
135.1 | – | CCCCCCCC/C=C\CCCCCCCCOCCN(CCOCCCCCCCC/C=C\CCCCCCCC)C(=O)[C@@H](N)CCCN [Compound 93, (S)-2,5-Diamino-N,N-bis(2-((Z)-octadec-9-enyloxy)ethyl)pentanamido]
146.4 | – | CCCCCCCC/C=C\CCCCCCCCO[C@@H]1CN(CC)C[C@H]1OCCCCCCCC/C=C\CCCCCCCC [Compound 18, (3R,4R)-1-Ethyl-3,4-bis((Z)-octadec-9-enyloxy)pyrrolidine]
155.9 | – | CCCCC/C=C\C/C=C\CCCCCCCC(=O)OCCN(CCOC(=O)CCCCCCC/C=C\C/C=C\CCCCC)C(=O)OCCCN(C)C [Compound 117, 3-(Dimethylamino)propyl bis(2-((9Z,12Z)-1-oxooctadec-9,12-dienyloxy)ethyl)carbamate]
135.0 | – | CCCCCC/C=C\CCCCCCCCCCO[C@@H]1CN(C)C[C@H]1OCCCCCCCCCC/C=C\CCCCCC [Compound 48, (3R,4R)-1-Methyl-3,4-bis((Z)-octadec-11-enyloxy)pyrrolidine]
144.9 | – | CCCCC/C=C\C/C=C\CCCCCCCCCCOC[C@@H]1CN(C)C[C@H]1COCCCCCCCCCC/C=C\C/C=C\CCCCC (relative stereo) [Compound 108, trans-3,4-bis(((11Z,14Z)-Icos-11,14-dienyloxy)methyl)-1-methylpyrrolidine]
141.8 | – | CCCCC/C=C\C/C=C\CCCCCCCCCCOC[C@@H]1CNC[C@H]1COCCCCCCCCCC/C=C\C/C=C\CCCCC (relative stereo) [Compound 103, trans-3,4-bis(((11Z,14Z)-Icos-11,14-dienyloxy)methyl)pyrrolidine]
132.2 | – | CCCCC/C=C\C/C=C\CCCCCCCCO[C@@H]1CN(C(=O)CCN(C)C)C[C@H]1OCCCCCCCC/C=C\C/C=C\CCCCC [Compound 28, (3R,4R)-1-(3-(Dimethylamino)propanoyl)-3,4-bis((9Z,12Z)-octadec-9,12-dienyloxy)pyrrolidine]
151.3 | – | CCCCCCCCCCCCCCCCCCOCCN(C)CCOCCCCCCCCCCCCCCCCCC [Compound 37, N-Methyl-N,N-bis(2-(octadecyloxy)ethyl)amine]
148.9 | – | CCCCC/C=C\C/C=C\CCCCCCCCO[C@@H]1CN(CC(C)O)C[C@H]1OCCCCCCCC/C=C\C/C=C\CCCCC (stereo partly drawn) [Compound 54, 1-((3R,4R)-3,4-bis((9Z,12Z)-Octadec-9,12-dienyloxy)pyrrolidine-1-yl)propan-2-ol]
